Assay results from article PMC9516332 (Frontiers in Oncology, 2022).
Read-outs that look alike come from different tables or passages of the source.

How the values were obtained:
Experiment in all cases: Kinase panel profiling at 1 µmol/L (MSA or IMAP), percentage inhibition
Format in all cases: biochemical
[1] = target: panel of 255 wild-type kinases (Homo sapiens, UniProt Q13131); conditions: read-out: %-inhibition AMPKα1/β1/γ1
[2] = target: T1, panel of 255 wild-type kinases (Homo sapiens, UniProt P54753); conditions: read-out: %-inhibition at 1 µmol/L, EPHB3
T1 sequence (P54753 34-998): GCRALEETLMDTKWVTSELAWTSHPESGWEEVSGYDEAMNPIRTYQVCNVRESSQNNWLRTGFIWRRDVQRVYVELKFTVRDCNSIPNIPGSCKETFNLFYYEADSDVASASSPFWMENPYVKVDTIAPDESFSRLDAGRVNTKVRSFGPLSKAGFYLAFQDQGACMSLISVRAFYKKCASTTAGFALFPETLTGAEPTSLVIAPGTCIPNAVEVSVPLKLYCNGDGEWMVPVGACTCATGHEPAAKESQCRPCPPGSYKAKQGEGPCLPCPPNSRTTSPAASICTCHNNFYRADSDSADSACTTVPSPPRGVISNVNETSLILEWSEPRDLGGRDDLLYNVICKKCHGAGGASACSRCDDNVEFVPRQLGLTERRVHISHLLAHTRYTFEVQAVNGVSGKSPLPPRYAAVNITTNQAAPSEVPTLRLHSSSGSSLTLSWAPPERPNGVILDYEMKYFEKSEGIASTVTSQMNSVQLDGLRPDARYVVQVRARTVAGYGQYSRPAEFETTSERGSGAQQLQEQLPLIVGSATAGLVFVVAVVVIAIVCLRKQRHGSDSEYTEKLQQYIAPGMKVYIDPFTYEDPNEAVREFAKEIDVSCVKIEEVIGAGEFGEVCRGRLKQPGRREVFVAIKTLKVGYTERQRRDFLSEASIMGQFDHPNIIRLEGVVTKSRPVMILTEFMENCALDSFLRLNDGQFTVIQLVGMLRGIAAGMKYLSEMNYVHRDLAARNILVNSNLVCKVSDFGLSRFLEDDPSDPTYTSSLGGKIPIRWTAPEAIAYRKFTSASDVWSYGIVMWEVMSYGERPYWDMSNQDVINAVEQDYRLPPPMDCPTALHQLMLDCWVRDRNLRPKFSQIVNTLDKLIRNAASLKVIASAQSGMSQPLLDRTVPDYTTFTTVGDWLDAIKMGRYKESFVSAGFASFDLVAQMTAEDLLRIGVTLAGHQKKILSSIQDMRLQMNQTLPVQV

[3] = target: T2, panel of 255 wild-type kinases (Homo sapiens, UniProt O15111); conditions: read-out: %-inhibition at 1 µmol/L, IKKα
T2 sequence (O15111 1-745): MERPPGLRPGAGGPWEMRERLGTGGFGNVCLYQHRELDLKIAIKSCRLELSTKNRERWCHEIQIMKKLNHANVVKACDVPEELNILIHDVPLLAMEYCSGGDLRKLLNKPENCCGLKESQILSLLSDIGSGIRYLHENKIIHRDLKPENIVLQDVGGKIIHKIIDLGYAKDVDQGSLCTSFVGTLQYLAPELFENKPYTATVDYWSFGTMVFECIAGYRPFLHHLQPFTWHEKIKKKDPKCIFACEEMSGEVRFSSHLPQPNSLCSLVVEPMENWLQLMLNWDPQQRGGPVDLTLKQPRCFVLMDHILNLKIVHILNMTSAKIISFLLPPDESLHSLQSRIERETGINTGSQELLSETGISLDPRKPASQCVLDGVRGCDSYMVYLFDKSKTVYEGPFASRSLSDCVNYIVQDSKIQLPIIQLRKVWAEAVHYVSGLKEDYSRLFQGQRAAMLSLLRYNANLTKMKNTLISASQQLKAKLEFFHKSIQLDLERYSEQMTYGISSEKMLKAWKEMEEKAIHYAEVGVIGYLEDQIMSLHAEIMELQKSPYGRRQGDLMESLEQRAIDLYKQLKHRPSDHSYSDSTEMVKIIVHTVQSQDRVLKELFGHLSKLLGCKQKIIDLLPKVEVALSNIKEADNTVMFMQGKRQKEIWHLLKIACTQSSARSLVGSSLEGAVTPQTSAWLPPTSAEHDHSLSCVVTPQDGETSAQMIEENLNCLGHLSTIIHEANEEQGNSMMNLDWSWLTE

[4] = target: panel of 255 wild-type kinases (Homo sapiens, UniProt P49760); conditions: read-out: %-inhibition at 1 µmol/L, CLK2
[5] = target: panel of 255 wild-type kinases (Homo sapiens, UniProt Q9H4A3); conditions: read-out: %-inhibition at 1 µmol/L, WNK1
[6] = target: T3, panel of 255 wild-type kinases (Homo sapiens, UniProt Q8IW41); conditions: read-out: %-inhibition, MAPKAPK5
T3 sequence (Q8IW41 1-473): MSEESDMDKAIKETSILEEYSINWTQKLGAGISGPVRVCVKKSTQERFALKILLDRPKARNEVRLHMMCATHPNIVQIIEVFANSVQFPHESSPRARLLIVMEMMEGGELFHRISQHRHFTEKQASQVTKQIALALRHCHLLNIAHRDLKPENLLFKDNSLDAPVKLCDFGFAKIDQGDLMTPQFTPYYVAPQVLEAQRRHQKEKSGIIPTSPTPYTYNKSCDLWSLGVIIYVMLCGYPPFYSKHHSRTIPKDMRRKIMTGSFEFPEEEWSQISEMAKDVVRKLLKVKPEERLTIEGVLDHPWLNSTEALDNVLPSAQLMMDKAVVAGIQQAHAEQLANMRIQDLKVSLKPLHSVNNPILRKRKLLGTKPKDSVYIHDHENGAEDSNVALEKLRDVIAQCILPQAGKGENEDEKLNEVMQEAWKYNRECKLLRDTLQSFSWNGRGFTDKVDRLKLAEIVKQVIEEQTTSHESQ

[7] = target: panel of 255 wild-type kinases (Homo sapiens, UniProt P24941)
[8] = target: panel of 255 wild-type kinases (Homo sapiens, UniProt P17612); conditions: read-out: %-inhibition at 1 µmol/L, PKACα
[9] = AMPKα1/β1/γ1 kinase assay, 1 µmol/L single concentration
[10] = kinase EPHB3, 1 µmol/L single concentration
[11] = kinase IKKα, 1 µmol/L single concentration
[12] = kinase CLK2, 1 µmol/L single concentration
[13] = kinase WNK1, 1 µmol/L single concentration
[14] = MAPKAPK5, 1 µmol/L single concentration
[15] = CDK2/CycA2 kinase assay, 1 µmol/L single concentration, read-out: %-inhibition CDK2/CycA2
[16] = CDK2/CycE1 kinase assay, 1 µmol/L single concentration, read-out: %-inhibition CDK2/CycE1
[17] = kinase PKACα, 1 µmol/L single concentration

| Structure (SMILES) | inhibition at 1 µM [1, 9] [%] | inhibition at 1 µM [2, 10] [%] | inhibition at 1 µM [3, 11] [%] | inhibition at 1 µM [4, 12] [%] | inhibition at 1 µM [5, 13] [%] | inhibition at 1 µM [6, 14] [%] | inhibition at 1 µM [7, 15] [%] | inhibition at 1 µM [7, 16] [%] | inhibition at 1 µM [8, 17] [%] | inhibition at 1 µM [1] [%] | inhibition at 1 µM [2] [%] | inhibition at 1 µM [3] [%] | inhibition at 1 µM [4] [%] | inhibition at 1 µM [5] [%] | inhibition at 1 µM [6] [%] | inhibition at 1 µM ([7]; read-out: %-inhibition CDK2/CycA2) [%] | inhibition at 1 µM ([7]; read-out: %-inhibition CDK2/CycE1) [%] | inhibition at 1 µM [8] [%] |
| --- | --- | --- | --- | --- | --- | --- | --- | --- | --- | --- | --- | --- | --- | --- | --- | --- | --- | --- |
| Cc1nc(NC(=O)N2CCC[C@H]2C(N)=O)sc1-c1ccnc(C(C)(C)C(F)(F)F)c1 [alpelisib] | -5 | -0.582 | 6 | 85 | -4 | -2.15 | -2.39 | -10 | -13 | – | – | – | – | – | – | – | – | – |
| Cn1cc(-c2cc3c(N4CCN(c5ncc([C@@](C)(N)c6ccc(F)cc6)cn5)CC4)ncnn3c2)cn1 [avapritinib] | 9 | 3 | 2.41 | 11 | -5.32 | 2 | -0.664 | -37 | -20 | – | – | – | – | – | – | – | – | – |
| Cn1cnc2c(F)c(Nc3ccc(Br)cc3F)c(C(=O)NOCCO)cc21 [binimetinib] | -7 | 3.28 | 9 | -2.25 | -3.5 | -4.73 | 2.3 | -14 | -12 | – | – | – | – | – | – | – | – | – |
| CNC(=O)c1ccc(-c2cnc3ncc(Cc4ccc5ncccc5c4)n3n2)cc1F [capmatinib] | – | – | – | – | – | – | – | – | – | -4.64 | 0.192 | 1.1 | 7 | -5 | -7 | 1.63 | -47 | -28 |
| COc1cc2ncnc(Nc3ccc(F)c(Cl)c3)c2cc1NC(=O)/C=C/CN1CCCCC1 [dacomitinib] | -12 | 2 | 10 | -0.6 | -4 | -4.47 | -13 | -16 | -11 | – | – | – | – | – | – | – | – | – |
| C[C@H](Nc1ncnc2nc[nH]c12)c1cc2cccc(Cl)c2c(=O)n1-c1ccccc1 [duvelisib] | -4 | 4 | 8 | 3.58 | -3 | 0.859 | -0.854 | -11 | -7.56 | – | – | – | – | – | – | – | – | – |
| COC(=O)N[C@@H](C)CNc1nccc(-c2cn(C(C)C)nc2-c2cc(Cl)cc(NS(C)(=O)=O)c2F)n1 [encorafenib] | -2.31 | 4 | 12 | 0.465 | 0.0799 | -4 | 5.57 | -9 | -10 | – | – | – | – | – | – | – | – | – |
| CN1CCN(c2ccc(C(=O)Nc3n[nH]c4ccc(Cc5cc(F)cc(F)c5)cc34)c(NC3CCOCC3)c2)CC1 [entrectinib] | 55 | 8 | 8 | 28 | -2.18 | 0.65 | 20 | 11 | -7 | – | – | – | – | – | – | – | – | – |
| CCc1nc(C(N)=O)c(Nc2ccc(N3CCC(N4CCN(C)CC4)CC3)c(OC)c2)nc1NC1CCOCC1 [gilteritinib] | 0.625 | 8 | 2.16 | 39 | -3 | -0.923 | 27 | 17 | – | – | – | – | – | – | – | – | – | 7 |
| CCN1CCN(c2ccc(Nc3cc(N(C)C(=O)Nc4c(Cl)c(OC)cc(OC)c4Cl)ncn3)cc2)CC1 [infigratinib] | -4 | -1 | 2.62 | 15 | -4.6 | -6 | 11 | -33 | -28 | – | – | – | – | – | – | – | – | – |
| O=C(Nc1cnn2ccc(N3CCC[C@@H]3c3cc(F)ccc3F)nc12)N1CC[C@H](O)C1 [larotrectinib] | -5.64 | -0.506 | 2.45 | 9 | -4.49 | -3 | -2.44 | -18 | -20 | – | – | – | – | – | – | – | – | – |
| C[C@H]1Oc2cc(cnc2N)-c2c(nn(C)c2C#N)CN(C)C(=O)c2ccc(F)cc21 [lorlatinib] | -3.58 | 13 | 12 | 2.49 | 0.826 | 2.32 | 1.87 | -6.33 | -8 | – | – | – | – | – | – | – | – | – |
| CCN1C(=O)N(c2c(F)c(OC)cc(OC)c2F)Cc2cnc3[nH]c(CN4CCOCC4)cc3c21 [pemigatinib] | -6.52 | -2.52 | -6 | 6.37 | -3.59 | 2.28 | 3.55 | 7 | -9 | – | – | – | – | – | – | – | – | – |
| FC(F)(F)c1ccc(CNc2ccc(Cc3c[nH]c4ncc(Cl)cc34)cn2)cn1 [pexidartinib] | -11 | -7 | -0.379 | 3.48 | -1.24 | 0.469 | 12 | -4 | -7 | – | – | – | – | – | – | – | – | – |
